In patent US20100016547A1, “Glycosilated Peptide and Medicine Comprising It as an Effective Ingredient” (priority 2005, published 2010) one finds IC50 and EC50 data, which are given here for 7 compounds.

The target of test [1] is T1, GLP-1 receptor (Homo sapiens, UniProt P43220).
Method: After being incubated at room temperature for 2 hours, the solution was filtered through a unifilter 96GF/C plate (Perkin-Elmer) pretreated with 1% polyethylenimine containing 0.5% BSA, washed with 25 mM HEPES buffer solution (pH 7.4) containing 0.5% BSA, and radioactivity remained on the filter was measured by a gamma counter (Top Counter; Perkin-Elmer).
The target of test [2] is T1, GLP-1 receptor. The experiment in a line: Assay for production of cAMP.
Method: Assay for Production of cAMP
After stirring at room temperature for an hour, the cells were lysed with Triton X-100 (final concentration: 1%).
Quantity of cAMP was determined using cAMP Femtomolar Kit (CIS Bio International). The reaction solution (1 μL) was moved to a new 384-well plate and diluted by adding 9 μL of dilution buffer. Next, each 5 μL of cAMP-XL665 solution and anti-cAMP cryptate solution of the Kit was added, the mixture was incubated at room temperature for an hour, and time-resolved fluorescence was measured using RUBYstar (BMG LABTECH).

T1 sequence (P43220 24-463, species assumed): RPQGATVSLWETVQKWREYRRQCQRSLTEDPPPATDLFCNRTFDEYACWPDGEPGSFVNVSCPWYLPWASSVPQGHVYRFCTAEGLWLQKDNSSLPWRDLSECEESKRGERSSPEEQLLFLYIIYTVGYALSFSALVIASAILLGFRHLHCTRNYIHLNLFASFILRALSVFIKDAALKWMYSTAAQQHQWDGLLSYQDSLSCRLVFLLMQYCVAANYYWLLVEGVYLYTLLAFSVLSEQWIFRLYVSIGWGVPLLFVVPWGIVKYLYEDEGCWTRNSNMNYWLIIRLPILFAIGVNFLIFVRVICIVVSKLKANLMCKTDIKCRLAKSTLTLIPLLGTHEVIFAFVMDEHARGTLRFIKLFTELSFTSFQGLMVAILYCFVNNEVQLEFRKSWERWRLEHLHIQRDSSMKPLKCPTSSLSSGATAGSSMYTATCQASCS

The term IC50 denotes the point on the concentration scale where inhibition reaches its midpoint. Read a high IC50 as a need for much substance. A word on the EC50: it is the concentration giving half of the maximal effect. Consider `CC[C@H](C)[C@H](NC(=O)[C@H](Cc1ccccc1)NC(=O)[C@H](CCC(=O)O)NC(=O)[C@H](CCCCN)NC(=O)[C@H](C)NC(=O)[C@H](C)NC(=O)[C@H](CCC(N)=O)NC(=O)CNC(=O)[C@H](CCC(=O)O)NC(=O)[C@H](CC(C)C)NC(=O)[C@H](Cc1ccc(O)cc1)NC(=O)[C@H](CO)NC(=O)[C@H](CO)NC(=O)[C@@H](NC(=O)[C@H](CC(=O)O)NC(=O)[C@H](CO)NC(=O)[C@@H](NC(=O)[C@H](Cc1ccccc1)NC(=O)[C@@H](NC(=O)CNC(=O)[C@H](CCC(=O)O)NC(=O)[C@H](C)NC(=O)[C@@H](N)Cc1c[nH]cn1)[C@@H](C)O)[C@@H](C)O)C(C)C)C(=O)N[C@@H](C)C(=O)N[C@@H](Cc1c[nH]c2ccccc12)C(=O)N[C@@H](CC(C)C)C(=O)N[C@H](C(=O)N[C@@H](CC(=O)N[C@@H]1O[C@H](CO)[C@@H](O[C@@H]2O[C@H](CO)[C@H](O)[C@H](O)[C@H]2O)[C@H](O)[C@H]1NC(C)=O)C(=O)NCC(=O)N[C@@H](CCCNC(=N)N)C(N)=O)C(C)C` [GL34NL], for which 0.76 nM corresponded to half-maximal inhibition against GLP-1 receptor [1] (IC50). In addition, on GLP-1 receptor [2], a half-maximal response (EC50) required 0.11 nM.
On GLP-1 receptor [1], `CC[C@H](C)[C@H](NC(=O)[C@H](Cc1ccccc1)NC(=O)[C@H](CCC(=O)O)NC(=O)[C@H](CCCCN)NC(=O)[C@H](C)NC(=O)[C@H](C)NC(=O)[C@H](CCC(N)=O)NC(=O)CNC(=O)[C@H](CCC(=O)O)NC(=O)[C@H](CC(C)C)NC(=O)[C@H](Cc1ccc(O)cc1)NC(=O)[C@H](CO)NC(=O)[C@H](CO)NC(=O)[C@@H](NC(=O)[C@H](CC(=O)O)NC(=O)[C@H](CO)NC(=O)[C@@H](NC(=O)[C@H](Cc1ccccc1)NC(=O)[C@@H](NC(=O)CNC(=O)[C@H](CCC(=O)O)NC(=O)[C@H](C)NC(=O)[C@@H](N)Cc1c[nH]cn1)[C@@H](C)O)[C@@H](C)O)C(C)C)C(=O)N[C@@H](C)C(=O)N[C@@H](Cc1c[nH]c2ccccc12)C(=O)N[C@@H](CC(C)C)C(=O)N[C@H](C(=O)N[C@@H](CC(N)=O)C(=O)NCC(=O)N[C@@H](CCCNC(=N)N)C(N)=O)C(C)C` [GL34N] showed an IC50 of 1 nM. On GLP-1 receptor [2], this compound yielded an EC50 of 0.11 nM.
On the same counts, the results for `CC[C@H](C)[C@H](NC(=O)[C@H](Cc1ccccc1)NC(=O)[C@H](CCC(=O)O)NC(=O)[C@H](CC(=O)N[C@@H]1O[C@H](CO)[C@@H](O[C@@H]2O[C@H](CO[C@]3(C(=O)O)C[C@H](O)[C@@H](NC(C)=O)[C@H]([C@H](O)[C@H](O)CO)O3)[C@H](O)[C@H](O)[C@H]2O)[C@H](O)[C@H]1NC(C)=O)NC(=O)[C@H](C)NC(=O)[C@H](C)NC(=O)[C@H](CCC(N)=O)NC(=O)CNC(=O)[C@H](CCC(=O)O)NC(=O)[C@H](CC(C)C)NC(=O)[C@H](Cc1ccc(O)cc1)NC(=O)[C@H](CO)NC(=O)[C@H](CO)NC(=O)[C@@H](NC(=O)[C@H](CC(=O)O)NC(=O)[C@H](CO)NC(=O)[C@@H](NC(=O)[C@H](Cc1ccccc1)NC(=O)[C@@H](NC(=O)CNC(=O)[C@H](CCC(=O)O)NC(=O)[C@H](C)NC(=O)[C@@H](N)Cc1c[nH]cn1)[C@@H](C)O)[C@@H](C)O)C(C)C)C(=O)N[C@@H](C)C(=O)N[C@@H](Cc1c[nH]c2ccccc12)C(=O)N[C@@H](CC(C)C)C(=O)N[C@H](C(=O)N[C@@H](CCCCN)C(=O)NCC(=O)N[C@@H](CCCNC(=N)N)C(=O)N[C@@H](CC(=O)N[C@@H]1O[C@H](CO)[C@@H](O[C@@H]2O[C@H](CO[C@]3(C(=O)O)C[C@H](O)[C@@H](NC(C)=O)[C@H]([C@H](O)[C@H](O)CO)O3)[C@H](O)[C@H](O)[C@H]2O)[C@H](O)[C@H]1NC(C)=O)C(N)=O)C(C)C` [GL2637NS6] are 21 nM and 1 nM.
`CC[C@H](C)[C@H](NC(=O)[C@H](Cc1ccccc1)NC(=O)[C@H](CCC(=O)O)NC(=O)[C@H](CCCCN)NC(=O)[C@H](C)NC(=O)[C@H](C)NC(=O)[C@H](CCC(N)=O)NC(=O)CNC(=O)[C@H](CCC(=O)O)NC(=O)[C@H](CC(C)C)NC(=O)[C@H](Cc1ccc(O)cc1)NC(=O)[C@H](CO)NC(=O)[C@H](CO)NC(=O)[C@@H](NC(=O)[C@H](CC(=O)O)NC(=O)[C@H](CO)NC(=O)[C@@H](NC(=O)[C@H](Cc1ccccc1)NC(=O)[C@@H](NC(=O)CNC(=O)[C@H](CCC(=O)O)NC(=O)[C@H](C)NC(=O)[C@@H](N)Cc1c[nH]cn1)[C@@H](C)O)[C@@H](C)O)C(C)C)C(=O)N[C@@H](C)C(=O)N[C@@H](Cc1c[nH]c2ccccc12)C(=O)N[C@@H](CC(C)C)C(=O)N[C@H](C(=O)N[C@@H](CSCC(=O)N[C@@H](CC(=O)N[C@@H]1O[C@H](CO)[C@@H](O[C@@H]2O[C@H](CO)[C@@H](O[C@@H]3O[C@H](CO[C@H]4O[C@H](CO)[C@@H](O)[C@H](O)[C@@H]4O[C@@H]4O[C@H](CO)[C@@H](O[C@@H]5O[C@H](CO[C@]6(C(=O)O)C[C@H](O)[C@@H](NC(C)=O)[C@H]([C@H](O)[C@H](O)CO)O6)[C@H](O)[C@H](O)[C@H]5O)[C@H](O)[C@H]4NC(C)=O)[C@@H](O)[C@H](O[C@H]4O[C@H](CO)[C@@H](O)[C@H](O)[C@@H]4O[C@@H]4O[C@H](CO)[C@@H](O[C@@H]5O[C@H](CO[C@]6(C(=O)O)C[C@H](O)[C@@H](NC(C)=O)[C@H]([C@H](O)[C@H](O)CO)O6)[C@H](O)[C@H](O)[C@H]5O)[C@H](O)[C@H]4NC(C)=O)[C@@H]3O)[C@H](O)[C@H]2NC(C)=O)[C@H](O)[C@H]1NC(C)=O)C(=O)O)C(=O)NCC(=O)N[C@@H](CCCNC(=N)N)C(=O)N[C@@H](CSCC(=O)N[C@@H](CC(=O)N[C@@H]1O[C@H](CO)[C@@H](O[C@@H]2O[C@H](CO)[C@@H](O[C@@H]3O[C@H](CO[C@H]4O[C@H](CO)[C@@H](O)[C@H](O)[C@@H]4O[C@@H]4O[C@H](CO)[C@@H](O[C@@H]5O[C@H](CO[C@]6(C(=O)O)C[C@H](O)[C@@H](NC(C)=O)[C@H]([C@H](O)[C@H](O)CO)O6)[C@H](O)[C@H](O)[C@H]5O)[C@H](O)[C@H]4NC(C)=O)[C@@H](O)[C@H](O[C@H]4O[C@H](CO)[C@@H](O)[C@H](O)[C@@H]4O[C@@H]4O[C@H](CO)[C@@H](O[C@@H]5O[C@H](CO[C@]6(C(=O)O)C[C@H](O)[C@@H](NC(C)=O)[C@H]([C@H](O)[C@H](O)CO)O6)[C@H](O)[C@H](O)[C@H]5O)[C@H](O)[C@H]4NC(C)=O)[C@@H]3O)[C@H](O)[C@H]2NC(C)=O)[C@H](O)[C@H]1NC(C)=O)C(=O)O)C(N)=O)C(C)C` [GL3437CE1] came in with an IC50 on GLP-1 receptor [1] of 30 nM. At GLP-1 receptor [2], this compound came in with an EC50 of 4.1 nM.
The compound `CC[C@H](C)[C@H](NC(=O)[C@H](Cc1ccccc1)NC(=O)[C@H](CCC(=O)O)NC(=O)[C@H](CCCCN)NC(=O)[C@H](C)NC(=O)[C@H](C)NC(=O)[C@H](CCC(N)=O)NC(=O)CNC(=O)[C@H](CCC(=O)O)NC(=O)[C@H](CC(C)C)NC(=O)[C@H](Cc1ccc(O)cc1)NC(=O)[C@H](CO)NC(=O)[C@H](CO)NC(=O)[C@@H](NC(=O)[C@H](CC(=O)O)NC(=O)[C@H](CO)NC(=O)[C@@H](NC(=O)[C@H](Cc1ccccc1)NC(=O)[C@@H](NC(=O)CNC(=O)[C@H](CCC(=O)O)NC(=O)[C@H](C)NC(=O)[C@@H](N)Cc1c[nH]cn1)[C@@H](C)O)[C@@H](C)O)C(C)C)C(=O)N[C@@H](C)C(=O)N[C@@H](Cc1c[nH]c2ccccc12)C(=O)N[C@@H](CC(C)C)C(=O)N[C@H](C(=O)N[C@@H](CC(=O)N[C@@H]1O[C@H](CO)[C@@H](O)[C@H](O)[C@H]1NC(C)=O)C(=O)NCC(=O)N[C@@H](CCCNC(=N)N)C(=O)N[C@@H](CC(=O)N[C@@H]1O[C@H](CO)[C@@H](O)[C@H](O)[C@H]1NC(C)=O)C(N)=O)C(C)C` [GL3437NG] had an IC50 on GLP-1 receptor [1] of 0.9 nM. In addition, on GLP-1 receptor [2], the EC50 came out at 0.11 nM.
On the same counts, the results for `CC[C@H](C)[C@H](NC(=O)[C@H](Cc1ccccc1)NC(=O)[C@H](CCC(=O)O)NC(=O)[C@H](CCCCN)NC(=O)[C@H](C)NC(=O)[C@H](C)NC(=O)[C@H](CCC(N)=O)NC(=O)CNC(=O)[C@H](CCC(=O)O)NC(=O)[C@H](CC(C)C)NC(=O)[C@H](Cc1ccc(O)cc1)NC(=O)[C@H](CO)NC(=O)[C@H](CO)NC(=O)[C@@H](NC(=O)[C@H](CC(=O)O)NC(=O)[C@H](CO)NC(=O)[C@@H](NC(=O)[C@H](Cc1ccccc1)NC(=O)[C@@H](NC(=O)CNC(=O)[C@H](CCC(=O)O)NC(=O)[C@H](C)NC(=O)[C@@H](N)Cc1c[nH]cn1)[C@@H](C)O)[C@@H](C)O)C(C)C)C(=O)N[C@@H](C)C(=O)N[C@@H](Cc1c[nH]c2ccccc12)C(=O)N[C@@H](CC(C)C)C(=O)N[C@H](C(=O)N[C@@H](CC(=O)N[C@@H]1O[C@H](CO)[C@@H](O[C@@H]2O[C@H](CO[C@]3(C(=O)O)C[C@H](O)[C@@H](NC(C)=O)[C@H]([C@H](O)[C@H](O)CO)O3)[C@H](O)[C@H](O)[C@H]2O)[C@H](O)[C@H]1NC(C)=O)C(=O)NCC(=O)N[C@@H](CCCNC(=N)N)C(=O)N[C@@H](CC(=O)N[C@@H]1O[C@H](CO)[C@@H](O[C@@H]2O[C@H](CO[C@]3(C(=O)O)C[C@H](O)[C@@H](NC(C)=O)[C@H]([C@H](O)[C@H](O)CO)O3)[C@H](O)[C@H](O)[C@H]2O)[C@H](O)[C@H]1NC(C)=O)C(N)=O)C(C)C` [GL3437NS6] are 3 nM and 0.2 nM.
“H-HAEGTFTSDVSSNLEGQAAKEFIAWLVKGR-NH2 [GL19N]”: the IC50 against GLP-1 receptor [1] is 11 nM. This compound also displayed an EC50 at GLP-1 receptor [2] of 0.92 nM.
